Assay [1] concerns TLR-2/-3/-4/-5/-7/-9 and NOD-1/NOD-2. Description: TLR-2/-3/-4/-5/-7/-9 and NOD-1/NOD-2 counter-screens (reporter gene assays). It is filed as cell-based, human. In general terms: A counterscreen serves to expose hits that act by an unwanted route or on another target.
Description: (§1) HEK293 cells stably co-transfected with the appropriate hTLR (or NOD) and secreted alkaline phosphatase (sAP) were maintained in HEK-BLUE™ Selection medium. Stable expression of secreted alkaline phosphatase (sAP) under control of NF-κB/AP-1 promoters is inducible by appropriate TLR/NOD agonists, and extracellular sAP in the supernatant is proportional to NF-κB induction. Reporter cells were incubated at a density of ˜10^5 cells/ml in a volume of 80 μl/well, in 384-well, flat-bottomed cell culture-treated microtiter plates in the presence of graded concentrations of stimuli. sAP was assayed spectrophotometrically using an alkaline phosphatase-specific chromogen (present in HEK-detection medium as supplied by InvivoGen) at 620 nm.
Assay [2] has as its target T1, human TLR8 (Homo sapiens, UniProt Q9NR97).
T1 construct: expressed in transfected cells; host or cells: HEK293
T1 sequence (Q9NR97 27-1041): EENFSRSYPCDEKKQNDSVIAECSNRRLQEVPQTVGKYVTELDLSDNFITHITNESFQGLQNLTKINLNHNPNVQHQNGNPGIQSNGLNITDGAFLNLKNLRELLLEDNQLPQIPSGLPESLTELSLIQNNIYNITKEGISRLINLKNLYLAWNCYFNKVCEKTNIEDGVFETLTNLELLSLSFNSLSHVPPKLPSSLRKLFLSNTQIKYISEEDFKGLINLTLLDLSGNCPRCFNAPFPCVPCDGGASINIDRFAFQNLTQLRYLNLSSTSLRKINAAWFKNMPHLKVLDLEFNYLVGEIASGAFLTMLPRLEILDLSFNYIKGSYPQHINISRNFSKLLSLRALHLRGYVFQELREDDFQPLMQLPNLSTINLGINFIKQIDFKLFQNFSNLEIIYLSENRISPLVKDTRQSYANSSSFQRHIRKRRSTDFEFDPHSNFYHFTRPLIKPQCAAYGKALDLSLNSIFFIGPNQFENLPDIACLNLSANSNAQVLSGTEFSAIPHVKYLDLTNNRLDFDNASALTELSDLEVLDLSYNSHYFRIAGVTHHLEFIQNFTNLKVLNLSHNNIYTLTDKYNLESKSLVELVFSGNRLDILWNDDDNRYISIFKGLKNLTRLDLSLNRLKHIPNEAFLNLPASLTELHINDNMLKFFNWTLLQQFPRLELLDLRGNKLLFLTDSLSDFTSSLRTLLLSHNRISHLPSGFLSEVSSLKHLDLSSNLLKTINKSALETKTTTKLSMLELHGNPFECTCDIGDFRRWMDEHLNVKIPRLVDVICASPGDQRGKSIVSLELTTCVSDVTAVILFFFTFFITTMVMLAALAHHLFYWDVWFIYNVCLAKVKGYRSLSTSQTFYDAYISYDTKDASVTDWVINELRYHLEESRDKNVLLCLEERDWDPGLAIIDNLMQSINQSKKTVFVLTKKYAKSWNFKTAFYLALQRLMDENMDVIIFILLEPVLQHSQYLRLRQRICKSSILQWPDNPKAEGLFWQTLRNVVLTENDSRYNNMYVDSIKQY
The assay can be described thus: Human TLR8-specific reporter gene assay (NF-κB induction, sAP readout in HEK293 cells). It is filed as cell-based. Conditions: EC50 in human TLR8-specific reporter gene assay. On the technique in general: Reporter assays use an easily measured gene product as a stand-in for the process of interest.
Description: as §1

Another assay concerns CD14+ monocytes. The assay can be described thus: Eight-color flow cytometry of activation markers in human whole blood. Format: cell-based. Conditions: FIG. 5. Background: Flow cytometry measures light scatter and fluorescence of single cells or particles in a stream.
The next assay relates to human PBMCs. Description: Cytokine/chemokine induction in human peripheral blood mononuclear cells (multiplexed bead array). It is filed as cell-based. The note with it: human PBMCs as well as whole human blood, FIG. 3. From the text:
Immunoassays for cytokines.

The target in assay [3] is T1, human TLR8. Conditions: reference compounds, literature values (Kokatla et al.); read-out: TLR8 EC50 (previously reported); cited from earlier work.

Where a name gives a salt, the structure may show the parent alone.

Description for CD14+ monocytes: Eight-color Flow-cytometric immunostimulation experiments: Cell surface marker upregulation was determined by flow cytometry using protocols as described previously (Hood, J. D. et al. Hum. Vaccin. 2010, 6, 332-335), and modified for rapid-throughput. […] Serial dilutions of selected compounds were performed using a Bio-Tek Precision 2000 XS liquid handler in sterile 96-well polypropylene plates, to which were added 100 mL aliquots of anticoagulated whole human blood. The plates were incubated at 37° C. for 16 h. Negative (endotoxin free water) controls were included in each experiment. The following fluorochrome-conjugated antibodies were used: CD3-PE, CD19-FITC, CD56-APC (eBioscience, San Diego, CA), CD14-V500, CD28 PE-Cy7, CD40 V450, CD80 APC-H7, CD86 PerCP-Cy5.5 (Becton-Dickinson Biosciences, San Jose, CA). Following incubation, 2.5 μg of each antibody was added to wells with a liquid handler, and incubated at 4° C. in the dark for 60 min. […] CD28, CD40, CD80, and CD86 activation in the major leukocyte populations, viz., natural killer lymphocytes (NK cells: CD3-CD56+), cytokine-induced killer phenotype (CIK cells: CD3+CD56+), B lymphocytes (CD19+CD3-), T lymphocytes (CD3+CD56-), monocytes (CD14+), polymorphonuclear cells (CD14-) were quantified using FlowJo v 7.0 software (Treestar, Ashland, OR).

For the compound `CCCCCc1c(N)nc2ccccc2c1Cc1cccc(CN)c1` [Compound 9a, 4-(3-(Aminomethyl)benzyl)-3-pentylquinolin-2-amine dihydrochloride], in assay [1], the “specificity for TLR8” value is on record as “retained specificity for TLR8”.

`CCCCCc1c(N)nc2ccccc2c1Cc1ccc(CN)cc1` [Compound 9b, 4-(4-(Aminomethyl)benzyl)-3-pentylquinolin-2-amine dihydrochloride]: the “specificity for TLR8” value in assay [1] is “retained specificity for TLR8”.

For the compound `CCCCCc1cc2c(Cc3ccccc3)cccc2nc1N` [Compound 17d, 5-Benzyl-3-pentylquinolin-2-amine], the “TLR8 Agonistic Activity (nM)” value at human TLR8 [2] is given as “Inactive”.

With `CCCCCc1cc2c(Cc3cccc(C(N)=O)c3)cccc2nc1N` [Compound 18d, 3-((2-Amino-3-pentylquinolin-5-yl)methyl)benzamide], the “TLR8 Agonistic Activity (nM)” value on human TLR8 [2] is “Inactive”.

Take `CCCCCc1cc2c(-c3cccc(CN)c3)cccc2nc1N` [Compound 20a, 5-(3-(Aminomethyl)phenyl)-3-pentylquinolin-2-amine]: on human TLR8 [2], the “TLR8 Agonistic Activity (nM)” value was “Inactive”.

On to `CCCCCc1cc2c(CCCCCN)cccc2nc1N` [Compound 34b, 5-(5-Aminopentyl)-3-pentylquinolin-2-amine], for which, in the assay on CD14+ monocytes, the CD40 upregulation result is “upregulate CD40” and the CD80 expression result was “strongly induces CD80 expression”. The “induction of proinflammatory cytokines including TNF-α, IL-12 and IFN-γ” value with human PBMCs is reported as “induction of a specific set of proinflammatory cytokines was observed”.

For `CCCCCc1cc2cccc(CCCCN)c2nc1N` [Compound 37, 8-(4-Aminobutyl)-3-pentylquinolin-2-amine], at human TLR8 [2], the “TLR8 Agonistic Activity (nM)” value is recorded as “Inactive”.

Usually EC50 stands for the concentration at which the effect is half-maximal. As to C2-butyl furo[2,3-c]quinoline, at human TLR8 [3], the EC50 is 1.6 µM.

(Values after patent US12180165B2, “Human TLR8-selective agonists” (University of Kansas, priority 2015, dated 2024).)
